Measured values reported in patent US12365658B2, “Benzothia(di)azepine compounds and their use as bile acid modulators” (Albireo AB, priority 2021, dated 2025).

Experiments:
Human LBAT = biological target: T1, Human LBAT (Homo sapiens, UniProt Q14973); assay: LBAT (h/m) assay, human LBAT-overexpressing cells, 3H-taurocholic acid uptake; format: cell-based; details: 0.3 μM 3H-taurocholic acid and 7.5 μM cold taurocholic acid, 20 minutes, read-out: hLBAT IC50
T1 construct: expressed in transfected cells; kept under Geneticin selection
T1 sequence (Q14973 1-349): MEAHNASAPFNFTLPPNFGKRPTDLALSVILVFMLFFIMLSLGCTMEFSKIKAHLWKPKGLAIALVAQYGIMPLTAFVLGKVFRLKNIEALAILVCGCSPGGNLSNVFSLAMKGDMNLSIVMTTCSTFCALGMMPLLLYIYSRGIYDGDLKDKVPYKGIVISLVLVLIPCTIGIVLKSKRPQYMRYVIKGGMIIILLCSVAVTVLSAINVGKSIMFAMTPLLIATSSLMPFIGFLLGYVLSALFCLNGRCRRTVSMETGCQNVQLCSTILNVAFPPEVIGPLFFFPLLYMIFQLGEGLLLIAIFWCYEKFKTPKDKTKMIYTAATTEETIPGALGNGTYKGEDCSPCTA
Experimental: LBAT (h/m) Assay Protocol
20,000 cells (Human or Mouse LBAT-overexpressing cells) were seeded in 96-wells plate (Corning CLS3809) in 100 μL MEM-alpha medium (Gibco 12571-063) supplemented with 10% FBS (Gibco 10438026) containing Geneticin (Gibco 10131-027) (1 mg/mL) and incubated at 37° C. in 5% CO2 for 24 hours. After incubation, media was decanted from the wells and cells were washed two times with 300 μL of basal MEM-alpha medium (FBS-free). After decanting basal MEM-alpha medium each time, plates were tapped against paper towel to ensure maximum removal of residual media.
For human LBAT, incubation mix was prepared by adding test inhibitor dilutions (3-fold serial dilution in DMSO (Sigma D2650), 10 points) in MEM-alpha (without FBS) containing 0.3 μM 3H-taurocholic acid (ARC ART-1368) and 7.5 μM cold taurocholic acid (Sigma T4009) (maintaining 0.2% final DMSO concentration). For mouse LBAT, incubation mix was prepared by adding test inhibitor dilutions (3-fold serial dilution in DMSO, 10 points) in MEM-alpha (without FBS) containing 0.3 μM 3H-taurocholic acid and 25 μM cold taurocholic acid maintaining 0.2% final DMSO concentration).
50 μL of incubation mix containing test inhibitors was then added to the wells (in duplicate) and the plates were incubated for 20 minutes in a CO2 incubator at 37° C. After incubation, the reaction was stopped by keeping the plates on ice water mix for 2-3 minutes and then the incubation mix was aspirated completely from the wells. The wells were washed two times with 250 μL of chilled unlabelled 1 mM taurocholic acid dissolved in HEPES (Gibco 15630080)-buffered (10 mM) HBSS (Gibco 14175079) (pH 7.4). The plates were tapped against a paper towel after every wash to ensure maximum removal of blocking buffer.
100 μL of MicroScint-20 (PerkinElmer 6013621) was added to the wells and kept overnight at room temperature before reading the plates in TopCount NXT™ Microplate Scintillation and Luminescence Counter from PerkinElmer under 3H Test protocol (set at 120 seconds reading time per well, with normal plate orientation).
Preparation of Test Compound Dilutions
All test compounds were provided in powder form at room temperature. 10 mM DMSO stocks of the test compounds were prepared, aliquoted and stored at −20° C. From the 10 mM DMSO stock of the compounds, a 3-fold serial dilution in DMSO was prepared to get a total of 10 dilutions of the test compounds. 0.5 μL of this dilution in DMSO was added to 250 μL of FBS-free basal media containing 3H-taurocholic acid and cold taurocholic acid to prepare the incubation mixture.

[1] = Bidirectional permeability assay (Caco-2 cells); format: in vitro ADME; details: human, 10 μM in FaSSIF buffer; for Papp A→B at 120 min, 10 μM: Caco-2, pH 7.4, absorptive direction (A2B); for Papp B→A at 120 min, 10 μM: Caco-2, pH 7.4, secretory direction (B2A)
Experimental: Bidirectional Permeability Assay (Caco-2 Cells)
Caco-2 cells (Evotec) were seeded at a density of 70,000 cells/well in Millicell® 24-well cell culture insert plates and maintained in an incubator (37° C., 5% CO2, 95% RH) for 21 days with media change on alternate days.
Stock solutions (10 mM) of the test compounds, atenolol (low permeability marker), propranolol (high permeability marker) and digoxin (substrate for P-gp transport pathway) were prepared in dimethylsulfoxide (DMSO). An intermediate stock solution (1 mM) was prepared by diluting 10 μL of 10 mM master stock solution with 90 μL of neat DMSO. A working stock solution (10 μM) was prepared by diluting 50 μL of 1 mM with 4950 μL of FaSSIF buffer. Post addition of compounds to the FaSSIF, samples were subjected to sonication for 2 hours, and centrifuged at 4000 RPM for 30 minutes at 37° C. The 4 mL of resultant supernatant was directly used in the assay. The final DMSO concentration in the transport experiments was 1%.
On the day of assay, Caco-2 monolayers were washed twice with transport buffer (HBSS, pH 7.4) and pre-incubated for 30 min (37° C., 5% CO2, 95% RH) in an incubator. The electrical resistance of the monolayers was measured with a Millicell®-ERS system. Monolayers with trans-epithelial electrical resistance (TEER) values greater than 350 ohm·cm^2 were selected for the assay.
The assay was conducted in absorptive direction (A2B) and secretory (B2A) directions. Transport experiments were initiated by addition of transport assay buffer (FaSSIF buffer prepared in HBSS) consisting of compounds to the donor compartment (apical chamber A-B; basolateral chamber B-A) in duplicate (n=2) wells. Drug free HBSS buffer (pH 7.4) containing 1% bovine serum albumin (BSA) was introduced to the receiver (A-B-basolateral; B-A-Apical) compartments. The volumes of apical and basolateral compartments were 0.4 and 0.8 mL, respectively. After adding dosing solution, plates were incubated in an incubator for 120 minutes at 37° C. After 120 minutes, donor and receiver samples were collected and matrix matched (1:1, 30 μL study sample+30 μL blank buffer) with the opposite buffer. Dosing samples matrix matched (1:1, 30 μL study sample+30 μL blank buffer) with the opposite buffer. Samples were processed by adding acetonitrile containing internal standard (60 μL study sample+200 μL acetonitrile containing internal standard-Tolbutamide, 500 ng/mL). Samples were vortexed and centrifuged at 4000 rpm for 10 minutes. The obtained supernatant (100 μL) was diluted with 100 μL of water and transferred to fresh 96 well plates. The concentration of compounds in the samples was analyzed by liquid chromatography tandem mass spectrometry (LC-MS/MS) method using discovery grade bio-analytical method, as applicable.
The mean apparent permeability (Papp, ×10^−6 cm/sec) of the test compounds, atenolol, propranolol and digoxin were calculated as follows:
where dq/dt=rate of transport (rate of transport of compound in the receiver compartment), C0=initial concentration in the donor compartment, A=surface area of the effective filter membrane.

SMILES	IC50 (Human LBAT)	Papp A→B at 120 min, 10 μM [1]	Papp B→A at 120 min, 10 μM [1]
CCCCC1CN(c2ccccc2)c2cc(SC)c(OCC(C)(OC)C(=O)O)cc2S(=O)(=O)N1C (single isomer, unassigned) [24, diastereomer 1]	8.4 nM		
CCCCC1CN(c2ccccc2)c2cc(SCC)c(OCC(C)(C)C(=O)O)cc2S(=O)(=O)N1C (centres unmarked) [Example 5, 3-((3-Butyl-7-(ethylthio)-2-methyl-1,1-dioxido-5-phenyl-2,3,4,5-tetrahydro-1,2,5-benzothiadiazepin-8-yl)oxy)-2,2-dimethylpropanoic acid]	8.9 nM	9.4 ×10⁻⁶ cm/s	7.2 ×10⁻⁶ cm/s
CCCCC1CN(c2ccccc2)c2cc(SC)c(OCC(C)(OC)C(=O)O)cc2S(=O)(=O)N1C (single isomer, unassigned) [24, diastereomer 2]	16 nM		
CCCCC1CN(c2ccccc2)c2cc(SC)c(OCC(C)(OC)C(=O)O)cc2S(=O)(=O)N1C (single isomer, unassigned) [Example 23, 3-((3-Butyl-2-methyl-7-(methylthio)-1,1-dioxido-5-phenyl-2,3,4,5-tetrahydro-1,2,5-benzothiadiazepin-8-yl)oxy)-2-methoxy-2-methylpropanoic acid]	14 nM	10.6 ×10⁻⁶ cm/s	30.2 ×10⁻⁶ cm/s
CCCCC1CN(c2ccccc2)c2cc(SC)c(OCC3(C(=O)O)CC3)cc2S(=O)(=O)N1C (centres unmarked) [Example 3, 1-(((3-Butyl-2-methyl-7-(methylthio)-1,1-dioxido-5-phenyl-2,3,4,5-tetrahydro-1,2,5-benzothiadiazepin-8-yl)oxy)methyl)cyclopropane-1-carboxylic acid]	13 nM	20.8 ×10⁻⁶ cm/s	12.9 ×10⁻⁶ cm/s
CCCCC1CN(c2ccccc2)c2cc(SC)c(OCC(C)(OC)C(=O)O)cc2S(=O)(=O)N1C (centres unmarked) [Example 22, 3-((3-Butyl-2-methyl-7-(methylthio)-1,1-dioxido-5-phenyl-2,3,4,5-tetrahydro-1,2,5-benzothiadiazepin-8-yl)oxy)-2-methoxy-2-methylpropanoic acid]	28 nM	11.7 ×10⁻⁶ cm/s	21.5 ×10⁻⁶ cm/s
CCCCC1CN(c2ccccc2)c2cc(SCC)c(OCC3(C(=O)O)CC3)cc2S(=O)(=O)N1C (centres unmarked) [Example 7, 1-(((3-Butyl-7-(ethylthio)-2-methyl-1,1-dioxido-5-phenyl-2,3,4,5-tetrahydro-1,2,5-benzothiadiazepin-8-yl)oxy)methyl)cyclopropane-1-carboxylic acid]	25 nM	8.1 ×10⁻⁶ cm/s	3.8 ×10⁻⁶ cm/s
CCCCC1CN(c2ccccc2)c2cc(SC)c(OCC(OC)C(=O)O)cc2S(=O)(=O)N1C (single isomer, unassigned) [32, diastereomer 1]	22 nM	5.2 ×10⁻⁶ cm/s	15.9 ×10⁻⁶ cm/s
CCCCC1CN(c2ccccc2)c2cc(SC)c(OCC3(C(=O)O)CC3)cc2S(=O)(=O)N1C (single isomer, unassigned) [4, enantiomer 2]	7.4 nM	18.8 ×10⁻⁶ cm/s	13 ×10⁻⁶ cm/s

Now those with a lower IC50 (Human LBAT), led by results:

IC50 (Human LBAT)	Papp A→B at 120 min, 10 μM [1]	Papp B→A at 120 min, 10 μM [1]	SMILES
6.2 nM	8.6 ×10⁻⁶ cm/s	6.5 ×10⁻⁶ cm/s	CCCCC1CN(c2ccccc2)c2cc(SCC)c(OCC(C)(C)C(=O)O)cc2S(=O)(=O)N1C (single isomer, unassigned) [6, enantiomer 2]
6 nM	2.2 ×10⁻⁶ cm/s	4.3 ×10⁻⁶ cm/s	CCCCC1CN(c2ccc(F)cc2)c2cc(SCC)c(OCC(O)C(=O)O)cc2S(=O)(=O)N1C (centres unmarked) [Example 33, 3-((3-butyl-7-(ethylthio)-5-(4-fluorophenyl)-2-methyl-1,1-dioxido-2,3,4,5-tetrahydro-1,2,5-benzothiadiazepin-8-yl)oxy)-2-hydroxypropanoic acid]
5 nM	15.8 ×10⁻⁶ cm/s	5 ×10⁻⁶ cm/s	CCCCC1CN(c2ccccc2)c2cc(SCC)c(OCC3(C(=O)O)CC3)cc2S(=O)(=O)N1C (single isomer, unassigned) [8, enantiomer 1]
3.3 nM	10.8 ×10⁻⁶ cm/s	8.6 ×10⁻⁶ cm/s	CCCCC1CN(c2ccc(F)cc2)c2cc(SC)c(OCC(C)(C)C(=O)O)cc2S(=O)(=O)N1C (centres unmarked) [Example 13, 3-((3-butyl-5-(4-fluorophenyl)-2-methyl-7-(methylthio)-1,1-dioxido-2,3,4,5-tetrahydro-1,2,5-benzothiadiazepin-8-yl)oxy)-2,2-dimethylpropanoic acid]
2.3 nM	13.2 ×10⁻⁶ cm/s	15.2 ×10⁻⁶ cm/s	CCCCC1CN(c2ccccc2)c2cc(SC)c(OCC(C)(C)C(=O)O)cc2S(=O)(=O)N1C (single isomer, unassigned) [2, enantiomer 2]
